Columns and labels:
SW-620 = test: Antiproliferative activity against human SW620 cells measured after 48 to 72 hrs by CCK-8 method
[1] = Antiproliferative activity against HEK293T cells measured after 48 to 72 hrs by CCK-8 method; conditions: human
PC-9 = test: Antiproliferative activity against human PC-9 cells measured after 48 to 72 hrs by CCK-8 method
Huh-7 = test: Antiproliferative activity against human Huh-7 cells measured after 48 to 72 hrs by CCK-8 method
MKN-28 = test: Antiproliferative activity against human MKN-28 cells measured after 48 to 72 hrs by CCK-8 method
AGS = test: Antiproliferative activity against human AGS cells measured after 48 to 72 hrs by CCK-8 method
[2] = Antiproliferative activity against human THLE-2 cells measured after 48 to 72 hrs by CCK-8 method

- IC50 (SW-620): 2.07 µM
- IC50 (PC-9): 7.28 µM
- IC50 (Huh-7): 5.78 µM
- IC50 (MKN-28): 8.73 µM
- IC50 (AGS): 6.84 µM
SMILES: COc1ccc(CNc2nc(N(CCO)CCO)nc3c2ncn3C(C)C)cc1
- IC50 [1]: 11.5 µM
- IC50 [2]: 15 µM

Reference: ChEMBL document CHEMBL6096676, “TarIKGC: A Target Identification Tool Using Semantics-Enhanced Knowledge Graph Completion with Application to CDK2 Inhibitor Discovery” (J Med Chem, 2025)
